# From patent US11214803B2, “Modulators of YAP1 expression” (Ionis Pharmaceuticals, Inc., priority 2019, dated 2022)
# Columns and labels:
# [1] = Cynomolgus monkey tolerability, kidney and liver function markers (Example 34); settings: cynomolgus monkeys, 35 mg/kg subcutaneously, day 44
# Yap1 mRNA [2] = experiment: Dose-dependent inhibition of human Yap1 in SNU-449 cells (Example 9, RTS36584); assay type: cell-based; settings: free uptake; for % UTC (Yap1 mRNA): approximately 48 hours; for IC50: linear regression on a log/linear plot
# Procedure, shortened: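 SNU-449 cells (10,000/well) took up modified oligonucleotides by free uptake at a range of doses for about 48 h. Yap1 mRNA was quantified with primer-probe set RTS36584, normalised to RIBOGREEN total RNA and expressed as % untreated control; IC50 from linear regression on log/linear plot.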
# [3] = cynomolgus monkey, in vivo, sc, 35 mg/kg
# [4] = Cynomolgus monkey tolerability, hematology (Example 34); assay type: in vivo, cynomolgus monkeys; settings: for BAS / EOS / HCT / HGB / LUC / LYM / MCH / MCHC / MCV / MON / NEU / PLT / RBC / RCDW / Retic / WBC: cynomolgus monkey, in vivo, sc, 35 mg/kg; for MPV: cynomolgus monkeys, 35 mg/kg subcutaneously, day 44
# Experimental: To evaluate any effect of Ionis oligonucleotides in cynomolgus monkeys on hematologic parameters, blood samples of approximately 0.5 mL of blood was collected from each of the available study animals on day 44. The samples were collected in tubes containing K2-EDTA. Samples were analyzed for red blood cell (RBC) count, Hemoglobin (HGB), Hematocrit (HCT), Mean corpuscular volume (MCV), mean corpuscular hemoglobin (MCH), mean corpuscular hemoglobin concentration (MCHC), RBC Distribution Width (RCDW), reticulocyte count (Retic), platelet count (PLT), mean platelet volume (MPV), white blood cells (WBC) count, individual white blood cell counts, such as that of monocytes (MON), neutrophils (NEU), lymphocytes (LYM), eosinophils (EOS), basophils (BAS), and large unstained cells (LUC) using an ADVIA2120i hematology analyzer (Siemens, USA).
# Yap1 mRNA [5] = experiment: Inhibition of human Yap1 mRNA in SNU449 hepatocellular carcinoma xenograft tumors (Example 26); assay type: in vivo; settings: SNU449 xenografts in NSG mice, 50 mg/kg twice weekly for five days, relative to PBS treated animals
# Procedure, shortened: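 Female NSG mice bearing subcutaneous SNU449 xenografts (about 100 mm^3) dosed with modified oligonucleotides at 50 mg/kg twice weekly for five days, four per group. Tumour Yap1 mRNA measured by RT-qPCR, normalized to actin-beta, expressed as % of PBS-treated controls.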
# Yap1 mRNA [6] = experiment: Dose-dependent inhibition of human Yap1 in A-431 cells (Example 24, 11,000 cells per well, RTS36584, normalized to GAPDH); assay type: cell-based; settings: free uptake, 48 hours; for Yap1 mRNA, % UTC: RTS36584, normalized to GAPDH; for IC50: linear regression on a log/linear plot
# Experimental: Modified oligonucleotides described in the studies above were tested at various doses in A-431 cells. Cultured A-431 cells at a density of 11,000 cells per well were treated using free uptake with modified oligonucleotides diluted to concentrations described in the tables below. After approximately 48 hours, Yap1 mRNA levels were measured as previously described using the Human Yap1 primer-probe set RTS36584. Yap1 mRNA levels were normalized to GAPDH content, as measured by primer probe set RTS104 (forward sequence […], designated herein as SEQ ID NO.: 17; reverse sequence […], designated herein as SEQ ID NO.: 18; probe sequence […], designated herein as SEQ ID NO.: 19). Results are presented in the tables below as percent control of the amount of Yap1 mRNA relative to untreated control cells (% UTC). IC50s were calculated using a linear regression on a log/linear plot of the data in excel.
# [7] = Cynomolgus monkey tolerability, coagulation (Example 34); assay type: in vivo; settings: cynomolgus monkeys, 35 mg/kg subcutaneously, day 44
# Experimental: To evaluate effect of Ionis modified oligonucleotides on coagulation in cynomolgus monkeys, blood samples of approximately 0.9 mL were collected from each of the available study animals on day 44. The samples were collected in tubes containing 3.2% sodium citrate. Coagulation parameters tested include Activated partial thromboplastin time (APTT), prothrombin time (PT) and Figrinogen (FIB).
substance,measurement,setting,value
"958499 (ATTAGAGTATGTGGCA; 3-10-3 cEt gapmer, further chemistry not given here) [compound 958499]",ALB,[1],4.0 g/dL
same,ALP,[1],1449 IU/L
same,ALT,[1],67 IU/L
same,AST,[1],73 IU/L
same,BUN,[1],24 mg/dL
same,CREA,[1],0.9 mg/dL
same,GGT,[1],67 IU/L
same,GLO,[1],3.2 g/dL
same,GLU,[1],83 mg/dL
same,HDL,[1],89 mg/dL
same,LDL,[1],46 mg/dL
same,TBIL,[1],0.2 mg/dL
same,TG,[1],41 mg/dL
same,TP,[1],7.2 g/dL
same,% UTC (Yap1 mRNA),Yap1 mRNA [2]; 31.3 nM,93 % UTC
same,% UTC (Yap1 mRNA),Yap1 mRNA [2]; 125.0 nM,47 % UTC
same,% UTC (Yap1 mRNA),Yap1 mRNA [2]; 500.0 nM,19 % UTC
same,% UTC (Yap1 mRNA),Yap1 mRNA [2]; 2000.00 nM,7 % UTC
same,IC50,Yap1 mRNA [2],0.2 µM
same,A/G ratio,[3],1.3
same,BAS,[4],0.4%
same,EOS,[4],1.1%
same,HCT,[4],43%
same,HGB,[4],12 g/dL
same,LUC,[4],1.2%
same,LYM,[4],44%
same,MCH,[4],22 pg
same,MCHC,[4],29 g/dL
same,MCV,[4],77 fL
same,MON,[4],3.5%
same,NEU,[4],49%
same,PLT,[4],399 10^3/μL
same,RBC,[4],5.6e+06 µL⁻¹
same,RCDW,[4],12%
same,Retic,[4],1.5%
same,WBC,[4],12000 µL⁻¹
same,MPV,[4],7.6 fL
same,"Yap1 mRNA in tumors, % control",Yap1 mRNA [5],54 % control
same,"Yap1 mRNA, % UTC",Yap1 mRNA [6]; 0.002 μM,1 % UTC
same,"Yap1 mRNA, % UTC",Yap1 mRNA [6]; 0.008 μM,3 % UTC
same,"Yap1 mRNA, % UTC",Yap1 mRNA [6]; 0.04 μM,28 % UTC
same,"Yap1 mRNA, % UTC",Yap1 mRNA [6]; 0.2 μM,91 % UTC
same,"Yap1 mRNA, % UTC",Yap1 mRNA [6]; 1 μM,117 % UTC
same,IC50,Yap1 mRNA [6],0.03 µM
same,APTT,[7],18 s
same,FIB,[7],275 mg/dL
same,PT,[7],9 s
"1198440 (AAGTGTATGTCAGAAG; cEt, 2'-MOE, 5-methylcytosine, phosphorothioate modifications, further chemistry not given here) [compound 1198440]",ALB,[1],4.1 g/dL
same,ALP,[1],1412 IU/L
same,ALT,[1],45 IU/L
same,AST,[1],75 IU/L
same,BUN,[1],26 mg/dL
same,CREA,[1],0.9 mg/dL
same,GGT,[1],80 IU/L
same,GLO,[1],2.9 g/dL
same,GLU,[1],91 mg/dL
same,HDL,[1],104 mg/dL
same,LDL,[1],54 mg/dL
same,TBIL,[1],0.2 mg/dL
same,TG,[1],30 mg/dL
same,TP,[1],7.0 g/dL
same,% UTC (Yap1 mRNA),Yap1 mRNA [2]; 31.3 nM,55 % UTC
same,% UTC (Yap1 mRNA),Yap1 mRNA [2]; 125.0 nM,23 % UTC
same,% UTC (Yap1 mRNA),Yap1 mRNA [2]; 500.0 nM,6 % UTC
same,% UTC (Yap1 mRNA),Yap1 mRNA [2]; 2000.00 nM,2 % UTC
same,IC50,Yap1 mRNA [2],< 0.03 µM
same,A/G ratio,[3],1.4
same,BAS,[4],0.4%
same,EOS,[4],2.8%
same,HCT,[4],47%
same,HGB,[4],14 g/dL
same,LUC,[4],0.7%
same,LYM,[4],65%
same,MCH,[4],23 pg
same,MCHC,[4],29 g/dL
same,MCV,[4],80 fL
same,MON,[4],3.2%
same,NEU,[4],28%
same,PLT,[4],420 10^3/μL
same,RBC,[4],5.9e+06 µL⁻¹
same,RCDW,[4],12%
same,Retic,[4],1.2%
same,WBC,[4],10900 µL⁻¹
same,MPV,[4],7.5 fL
same,"Yap1 mRNA in tumors, % control",Yap1 mRNA [5],51 % control
same,"Yap1 mRNA, % UTC",Yap1 mRNA [6]; 0.002 μM,0 % UTC
same,"Yap1 mRNA, % UTC",Yap1 mRNA [6]; 0.008 μM,1 % UTC
same,"Yap1 mRNA, % UTC",Yap1 mRNA [6]; 0.04 μM,14 % UTC
same,"Yap1 mRNA, % UTC",Yap1 mRNA [6]; 0.2 μM,69 % UTC
same,"Yap1 mRNA, % UTC",Yap1 mRNA [6]; 1 μM,96 % UTC
same,IC50,Yap1 mRNA [6],0.02 µM
same,APTT,[7],20 s
same,FIB,[7],260 mg/dL
same,PT,[7],10 s
"1076453 (GTAATATTGCAATCTG; 3-10-3 cEt gapmer, further chemistry not given here) [compound 1076453]",ALB,[1],3.9 g/dL
same,ALP,[1],1173 IU/L
same,ALT,[1],53 IU/L
same,AST,[1],76 IU/L
same,BUN,[1],27 mg/dL
same,CREA,[1],0.9 mg/dL
same,GGT,[1],78 IU/L
same,GLO,[1],3.1 g/dL
same,GLU,[1],89 mg/dL
same,HDL,[1],98 mg/dL
same,LDL,[1],66 mg/dL
same,TBIL,[1],0.2 mg/dL
same,TG,[1],29 mg/dL
same,TP,[1],7.0 g/dL
same,% UTC (Yap1 mRNA),Yap1 mRNA [2]; 31.3 nM,67 % UTC
same,% UTC (Yap1 mRNA),Yap1 mRNA [2]; 125.0 nM,29 % UTC
same,% UTC (Yap1 mRNA),Yap1 mRNA [2]; 500.0 nM,8 % UTC
same,% UTC (Yap1 mRNA),Yap1 mRNA [2]; 2000.00 nM,1 % UTC
same,IC50,Yap1 mRNA [2],0.1 µM
same,A/G ratio,[3],1.3
same,BAS,[4],0.4%
same,EOS,[4],1.1%
same,HCT,[4],43%
same,HGB,[4],13 g/dL
same,LUC,[4],1.2%
same,LYM,[4],54%
same,MCH,[4],23 pg
same,MCHC,[4],29 g/dL
same,MCV,[4],79 fL
same,MON,[4],3.9%
same,NEU,[4],39%
same,PLT,[4],358 10^3/μL
same,RBC,[4],5.5e+06 µL⁻¹
same,RCDW,[4],15%
same,Retic,[4],1.2%
same,WBC,[4],10000 µL⁻¹
same,MPV,[4],8.4 fL
same,"Yap1 mRNA in tumors, % control",Yap1 mRNA [5],56 % control
same,"Yap1 mRNA, % UTC",Yap1 mRNA [6]; 0.002 μM,0 % UTC
same,"Yap1 mRNA, % UTC",Yap1 mRNA [6]; 0.008 μM,1 % UTC
same,"Yap1 mRNA, % UTC",Yap1 mRNA [6]; 0.04 μM,23 % UTC
same,"Yap1 mRNA, % UTC",Yap1 mRNA [6]; 0.2 μM,74 % UTC
same,"Yap1 mRNA, % UTC",Yap1 mRNA [6]; 1 μM,89 % UTC
same,APTT,[7],20 s
same,FIB,[7],234 mg/dL
same,PT,[7],9 s
